In PubChem BioAssay AID2060894 (Molecular Pharmacology Branch, DTP, NCI, 2025):
One block for each compound: values may come before it.

System: K12877-001-R-J1-PDC complex spheroid viability
Test: Anticancer human tumor K12877-001-R-J1-PDC patient-derived lung adenocarcinoma cell line growth inhibition [RAS]
Settings: for IC50: curve of first compound; for viability, T/C: stronger effect = lower value
In short: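 Multi-cell-type spheroids: tumor cells plus HUVEC endothelial cells and mesenchymal stem cells. RAS-pathway inhibitors were combined with targeted agents, each dosed in half-log steps down from clinical Cmax, or from 10 microM when Cmax was unknown.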

[1] = second compound 0.0316 µM, first compound 0.00316 µM
[2] = second compound 0.0316 µM, first compound 0.01 µM
[3] = second compound 0.0316 µM, first compound 0.0316 µM
[4] = second compound 0.0316 µM, first compound 0.1 µM
[5] = second compound 0.0316 µM, first compound 0.316 µM
[6] = second compound 0.0316 µM, first compound 1 µM
[7] = second compound 0.1 µM, first compound 0.00316 µM
[8] = second compound 0.1 µM, first compound 0.01 µM
[9] = second compound 0.1 µM, first compound 0.0316 µM
[10] = second compound 0.1 µM, first compound 0.1 µM
[11] = second compound 0.1 µM, first compound 0.316 µM
[12] = second compound 0.1 µM, first compound 1 µM
[13] = second compound 0.316 µM, first compound 0.00316 µM
[14] = second compound 0.316 µM, first compound 0.01 µM
[15] = second compound 0.316 µM, first compound 0.0316 µM
[16] = second compound 0.316 µM, first compound 0.1 µM
[17] = second compound 0.316 µM, first compound 0.316 µM
[18] = second compound 0.316 µM, first compound 1 µM
[19] = second compound 1 µM, first compound 0.00316 µM
[20] = second compound 1 µM, first compound 0.01 µM
[21] = second compound 1 µM, first compound 0.0316 µM
[22] = second compound 1 µM, first compound 0.1 µM
[23] = second compound 1 µM, first compound 0.316 µM
[24] = second compound 1 µM, first compound 1 µM
[25] = second compound 0.00316 µM, first compound 0.00316 µM
[26] = second compound 0.00316 µM, first compound 0.01 µM
[27] = second compound 0.00316 µM, first compound 0.0316 µM
[28] = second compound 0.00316 µM, first compound 0.1 µM
[29] = second compound 0.00316 µM, first compound 0.316 µM
[30] = second compound 0.00316 µM, first compound 1 µM
[31] = second compound 0.01 µM, first compound 0.00316 µM
[32] = second compound 0.01 µM, first compound 0.01 µM
[33] = second compound 0.01 µM, first compound 0.0316 µM
[34] = second compound 0.01 µM, first compound 0.1 µM
[35] = second compound 0.01 µM, first compound 0.316 µM
[36] = second compound 0.01 µM, first compound 1 µM
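Further: spheroids exposed to agents for one week before readout.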
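Wherever viability, T/C is given: tumour cells co-cultured with HUVEC and mesenchymal stem cells in spheroids.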

- IC50 (second compound 0.0316 µM): > 1 µM
- IC50 (second compound 0.1 µM): > 1 µM
- IC50 (second compound 0.316 µM): > 1 µM
- IC50 (second compound 1 µM): > 1 µM
- IC50 (second compound 3.16 µM): > 1 µM
- IC50 (second compound 10 µM): > 1 µM
Structure (SMILES): C=CC(=O)N1CCN(c2nc(OCC3CCCN3C)nc3c(F)c(-c4nc(N)cc(C)c4C(F)(F)F)c(Cl)cc23)C(C)C1 (stereo not drawn) + C#Cc1c(F)ccc2cc(O)cc(-c3ncc4c(N5CC6CCC(C5)N6)nc(OCC56CCCN5CC(F)C6)nc4c3F)c12
- viability, T/C [1]: 97.7%
- viability, T/C [2]: 87.3%
- viability, T/C [3]: 90.9%
- viability, T/C [4]: 79.4%
- viability, T/C [5]: 85.3%
- viability, T/C [6]: 72.8%
- viability, T/C [7]: 99.2%
- viability, T/C [8]: 84.5%
- viability, T/C [9]: 83.7%
- viability, T/C [10]: 78.3%
- viability, T/C [11]: 83.8%
- viability, T/C [12]: 75.5%
- viability, T/C [13]: 95.8%
- viability, T/C [14]: 86.2%
- viability, T/C [15]: 83.4%
- viability, T/C [16]: 89.7%
- viability, T/C [17]: 75%
- viability, T/C [18]: 81.9%
- viability, T/C [19]: 101%
- viability, T/C [20]: 85.3%
- viability, T/C [21]: 77.5%
- viability, T/C [22]: 89.8%
- viability, T/C [23]: 78.2%
- viability, T/C [24]: 77.8%
- viability, T/C (second compound 3.16 µM, first compound 0.00316 µM): 106%
- viability, T/C (second compound 3.16 µM, first compound 0.01 µM): 92.2%
- viability, T/C (second compound 3.16 µM, first compound 0.0316 µM): 80.7%
- viability, T/C (second compound 3.16 µM, first compound 0.1 µM): 83.1%
- viability, T/C (second compound 3.16 µM, first compound 0.316 µM): 85%
- viability, T/C (second compound 3.16 µM, first compound 1 µM): 73.9%
- viability, T/C (second compound 10 µM, first compound 0.00316 µM): 94.4%
- viability, T/C (second compound 10 µM, first compound 0.01 µM): 87.3%
- viability, T/C (second compound 10 µM, first compound 0.0316 µM): 79.1%
- viability, T/C (second compound 10 µM, first compound 0.1 µM): 79.8%
- viability, T/C (second compound 10 µM, first compound 0.316 µM): 78.2%
- viability, T/C (second compound 10 µM, first compound 1 µM): 83.2%

- IC50 (second compound 0.0316 µM): 0.0555 µM
- IC50 (second compound 0.1 µM): 0.0346 µM
- IC50 (second compound 0.316 µM): 0.0559 µM
- IC50 (second compound 1 µM): 0.0503 µM
- IC50 (second compound 3.16 µM): 0.0843 µM
- IC50 (second compound 10 µM): 0.187 µM
Structure (SMILES): CC1(C)CCC(Nc2ncc(C(F)(F)F)c(-c3c[nH]c4c(P(C)(C)=O)c(C#N)ccc34)n2)CN1 (stereo not drawn) + C#Cc1c(F)ccc2cc(O)cc(-c3ncc4c(N5CC6CCC(C5)N6)nc(OCC56CCCN5CC(F)C6)nc4c3F)c12
- viability, T/C (second compound 0.0316 µM, first compound 0.000949 µM): 93.6%
- viability, T/C (second compound 0.0316 µM, first compound 0.003 µM): 83.7%
- viability, T/C (second compound 0.0316 µM, first compound 0.00949 µM): 89.6%
- viability, T/C (second compound 0.0316 µM, first compound 0.03 µM): 65.2%
- viability, T/C (second compound 0.0316 µM, first compound 0.0949 µM): 37.2%
- viability, T/C (second compound 0.0316 µM, first compound 0.3 µM): 32%
- viability, T/C (second compound 0.1 µM, first compound 0.000949 µM): 97.6%
- viability, T/C (second compound 0.1 µM, first compound 0.003 µM): 100%
- viability, T/C (second compound 0.1 µM, first compound 0.00949 µM): 83.8%
- viability, T/C (second compound 0.1 µM, first compound 0.03 µM): 52.3%
- viability, T/C (second compound 0.1 µM, first compound 0.0949 µM): 34.5%
- viability, T/C (second compound 0.1 µM, first compound 0.3 µM): 29.1%
- viability, T/C (second compound 0.316 µM, first compound 0.000949 µM): 89.9%
- viability, T/C (second compound 0.316 µM, first compound 0.003 µM): 92%
- viability, T/C (second compound 0.316 µM, first compound 0.00949 µM): 87%
- viability, T/C (second compound 0.316 µM, first compound 0.03 µM): 63.3%
- viability, T/C (second compound 0.316 µM, first compound 0.0949 µM): 39%
- viability, T/C (second compound 0.316 µM, first compound 0.3 µM): 32.9%
- viability, T/C (second compound 1 µM, first compound 0.000949 µM): 96.9%
- viability, T/C (second compound 1 µM, first compound 0.003 µM): 87.5%
- viability, T/C (second compound 1 µM, first compound 0.00949 µM): 104%
- viability, T/C (second compound 1 µM, first compound 0.03 µM): 60.8%
- viability, T/C (second compound 1 µM, first compound 0.0949 µM): 40%
- viability, T/C (second compound 1 µM, first compound 0.3 µM): 33.6%
- viability, T/C (second compound 3.16 µM, first compound 0.000949 µM): 100%
- viability, T/C (second compound 3.16 µM, first compound 0.003 µM): 93.6%
- viability, T/C (second compound 3.16 µM, first compound 0.00949 µM): 86.6%
- viability, T/C (second compound 3.16 µM, first compound 0.03 µM): 82.5%
- viability, T/C (second compound 3.16 µM, first compound 0.0949 µM): 45.6%
- viability, T/C (second compound 3.16 µM, first compound 0.3 µM): 39.9%
- viability, T/C (second compound 10 µM, first compound 0.000949 µM): 99.8%
- viability, T/C (second compound 10 µM, first compound 0.003 µM): 88.7%
- viability, T/C (second compound 10 µM, first compound 0.00949 µM): 73.7%
- viability, T/C (second compound 10 µM, first compound 0.03 µM): 72.9%
- viability, T/C (second compound 10 µM, first compound 0.0949 µM): 56.9%
- viability, T/C (second compound 10 µM, first compound 0.3 µM): 44.2%

- IC50 (second compound 0.00316 µM): > 1 µM
- IC50 (second compound 0.01 µM): > 1 µM
- IC50 (second compound 0.0316 µM): > 1 µM
- IC50 (second compound 0.1 µM): > 1 µM
- IC50 (second compound 0.316 µM): > 1 µM
- IC50 (second compound 1 µM): > 1 µM
Structure (SMILES): C=CC(=O)Nc1cc(Nc2nccc(-c3cn(C)c4ccccc34)n2)c(OC)cc1N(C)CCN(C)C + C=CC(=O)N1CCN(c2nc(OCC3CCCN3C)nc3c(F)c(-c4nc(N)cc(C)c4C(F)(F)F)c(Cl)cc23)C(C)C1
- viability, T/C [25]: 106%
- viability, T/C [26]: 98.8%
- viability, T/C [27]: 98.7%
- viability, T/C [28]: 100%
- viability, T/C [29]: 101%
- viability, T/C [30]: 83.8%
- viability, T/C [31]: 104%
- viability, T/C [32]: 95%
- viability, T/C [33]: 103%
- viability, T/C [34]: 96.2%
- viability, T/C [35]: 92.7%
- viability, T/C [36]: 82.6%
- viability, T/C [1]: 95.8%
- viability, T/C [2]: 93.1%
- viability, T/C [3]: 88.3%
- viability, T/C [4]: 90.7%
- viability, T/C [5]: 79.6%
- viability, T/C [6]: 80.1%
- viability, T/C [7]: 93.6%
- viability, T/C [8]: 88.1%
- viability, T/C [9]: 88.9%
- viability, T/C [10]: 88.1%
- viability, T/C [11]: 76.2%
- viability, T/C [12]: 70.8%
- viability, T/C [13]: 90.8%
- viability, T/C [14]: 94.1%
- viability, T/C [15]: 82.3%
- viability, T/C [16]: 89.1%
- viability, T/C [17]: 79.8%
- viability, T/C [18]: 72.6%
- viability, T/C [19]: 86.5%
- viability, T/C [20]: 91.8%
- viability, T/C [21]: 83.6%
- viability, T/C [22]: 76.9%
- viability, T/C [23]: 76.6%
- viability, T/C [24]: 73.5%

- IC50 (second compound 0.00316 µM): > 1 µM
- IC50 (second compound 0.01 µM): > 1 µM
- IC50 (second compound 0.0316 µM): > 1 µM
- IC50 (second compound 0.1 µM): > 1 µM
- IC50 (second compound 0.316 µM): > 1 µM
- IC50 (second compound 1 µM): > 1 µM
Structure (SMILES): O=C(c1ccc(F)c(F)c1Nc1ccc(I)cc1F)N1CC(O)([C@@H]2CCCCN2)C1 + C=CC(=O)N1CCN(c2nc(OCC3CCCN3C)nc3c(F)c(-c4nc(N)cc(C)c4C(F)(F)F)c(Cl)cc23)C(C)C1
- viability, T/C [25]: 104%
- viability, T/C [26]: 103%
- viability, T/C [27]: 89.5%
- viability, T/C [28]: 91.7%
- viability, T/C [29]: 72.2%
- viability, T/C [30]: 54.5%
- viability, T/C [31]: 94.5%
- viability, T/C [32]: 95%
- viability, T/C [33]: 78.9%
- viability, T/C [34]: 90.7%
- viability, T/C [35]: 68.1%
- viability, T/C [36]: 58.3%
- viability, T/C [1]: 93%
- viability, T/C [2]: 85.2%
- viability, T/C [3]: 77.5%
- viability, T/C [4]: 87.6%
- viability, T/C [5]: 71.1%
- viability, T/C [6]: 66.4%
- viability, T/C [7]: 85.2%
- viability, T/C [8]: 89.3%
- viability, T/C [9]: 83.7%
- viability, T/C [10]: 82.2%
- viability, T/C [11]: 72.4%
- viability, T/C [12]: 55.4%
- viability, T/C [13]: 85.7%
- viability, T/C [14]: 83.3%
- viability, T/C [15]: 84.7%
- viability, T/C [16]: 89.4%
- viability, T/C [17]: 72.4%
- viability, T/C [18]: 59%
- viability, T/C [19]: 79.5%
- viability, T/C [20]: 79.3%
- viability, T/C [21]: 78.1%
- viability, T/C [22]: 103%
- viability, T/C [23]: 75.3%
- viability, T/C [24]: 57.2%
